From patent publication US8895585B2, “Nicotinamide derivative or salt thereof” (FUJIFILM Corporation, priority 2010, dated 2014)
pIC50: −log10 of the molar value.

Legend:
[1] = biological target: T1, glutathione S-transferase (GST)-fused full-length human Syk protein (Homo sapiens, UniProt P43405); experiment: Syk enzyme assay; format: biochemical; conditions: Syk enzyme assay, Test Example 1; read-out: IC50 of Syk-inhibitory activity
T1 construct: (GST)-fused full-length human Syk protein; GST (glutathione S-transferase); purchased Carna Biosciences
Method in brief: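 IC50 values come from a time-resolved FRET readout (615 and 665 nm) of substrate phosphorylation, measured after an EDTA stop and 1 h antibody binding. The kinase reaction ran 40 min at room temperature with 27 μM ATP and 0.4 μM biotin-peptide, following a 15 min compound preincubation with baculovirus-made GST-full-length human Syk.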

THP-1 cells = experiment: TNFα generation assay; format: cell-based, human; conditions: Homo sapiens, THP-1, THP-1 cells; Table 22; read-out: IC50 in TNFα generation assay
Method in brief: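 THP-1 cells differentiated to macrophage-like cells with 10 ng/ml IFN-γ for 2 days, preincubated with compound 30 min at room temperature, then cultured 7 h on plates coated with human IgG (10 μg/ml). Secreted TNFα measured by ELISA or AlphaLISA.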

Row | Compound | pIC50 [1] | pIC50 (THP-1 cells)
1 | NC(=O)c1cc(F)c(N[C@@H]2CCCC[C@@H]2N)nc1Nc1cnc2[nH]ccc2c1 (relative stereo) [Example 004-061] | > 8.00 | > 7.19
2 | CCOc1nn(CC)c2ccc(Nc3nc(N[C@H](CC)[C@H](C)N)c(F)cc3C(N)=O)cc12 [Example 006-593, 6-(((2S,3R)-2-aminopentan-3-yl)amino)-2-((3-ethoxy-1-ethyl-1H-indazol-5-yl)amino)-5-fluoronicotinamide] | > 8.00 | 6.89 to 7.19
3 | CCCOc1cc(Nc2nc(N[C@@H]3CCCC[C@@H]3N)c(F)cc2C(N)=O)ccn1 [Example 006-169, 6-(((1R,2S)-2-aminocyclohexyl)amino)-5-fluoro-2-((2-propoxypyridin-4-yl)amino)nicotinamide] | > 8.00 | > 7.19
4 | NC(=O)c1cc(F)c(N[C@@H]2CCCC[C@@H]2N)nc1Nc1cncc2c1ccn2CCN1CCCC1 [Example 004-007] | > 8.00 | 6.89 to 7.19
5 | NC(=O)c1cc(F)c(NC2CCCCC2N)nc1Nc1ccnc(-n2cncn2)c1 (centres unmarked) [Example 002-114] | > 8.00 | > 7.19
6 | Cc1ccncc1Nc1nc(N[C@@H]2CCCC[C@@H]2N)c(F)cc1C(N)=O [Example 004-019] | 7.30 to 8.00 | 6.70 to 6.89
7 | CCCC[C@@H](Nc1nc(Nc2ccnc(OCCOC)c2)c(C(N)=O)cc1F)[C@H](C)N [Example 006-407, 6-(((2S,3R)-2-aminoheptan-3-yl)amino)-5-fluoro-2-((2-(2-methoxyethoxy)pyridin-4-yl)amino)nicotinamide] | > 8.00 | 6.70 to 6.89
8 | NC(=O)c1cc(F)c(N[C@@H]2CCCC[C@@H]2N)nc1Nc1cncc2ccccc12 [Example 37-2, 6-((1R,2S)-2-aminocyclohexylamino)-5-fluoro-2-((isoquinolin-4-yl)amino)nicotinamide] | > 8.00 | > 7.19
9 | C[C@H](N)[C@@H](CC1CC1)Nc1nc(Nc2cncc(C3CC3)c2)c(C(N)=O)cc1F [Example 006-350, 6-(((2R,3S)-3-amino-1-cyclopropylbutan-2-yl)amino)-2-((5-cyclopropylpyridin-3-yl)amino)-5-fluoronicotinamide] | > 8.00 | 6.89 to 7.19
10 | CCOCCOCCn1ncc2cc(Nc3nc(N[C@@H]4CCCC[C@@H]4N)c(F)cc3C(N)=O)ccc21 (relative stereo) [Example 004-092, 6-(cis-2-aminocyclohexylamino)-2-((1-(2-(2-ethoxyethoxy)ethyl)-1H-indazol-5-yl)amino)-5-fluoronicotinamide] | > 8.00 | 6.89 to 7.19
11 | COCCOc1cc(Nc2nc(N[C@H](C3CC3)[C@H](C)N)c(F)cc2C(N)=O)ccn1 [Example 006-431, 6-(((1R,2S)-2-amino-1-cyclopropylpropyl)amino)-5-fluoro-2-((2-(2-methoxyethoxy)pyridin-4-yl)amino)nicotinamide] | 7.30 to 8.00 | 6.89 to 7.19
12 | COCc1cncc(Nc2nc(N[C@@H]3CCCC[C@@H]3N)c(F)cc2C(N)=O)c1 (relative stereo) [Example 004-188, 6-(cis-2-aminocyclohexylamino)-5-fluoro-2-((5-(methoxymethyl)pyridin-3-yl)amino)nicotinamide] | 7.30 to 8.00 | 6.89 to 7.19
13 | CC(C)C[C@@H](Nc1nc(Nc2ccc3c(c2)c(F)nn3CC(F)F)c(C(N)=O)cc1F)[C@H](C)N [Example 006-513, 6-(((2S,3R)-2-amino-5-methylhexan-3-yl)amino)-2-((1-(2,2-difluoroethyl)-3-fluoro-1H-indazol-5-yl)amino)-5-fluoronicotinamide] | > 8.00 | 6.89 to 7.19
14 | CCc1nn(CCF)c2ccc(Nc3nc(N[C@@H]4CCCC[C@@H]4N)c(F)cc3C(N)=O)cc12 [Example 006-454, 6-(((1R,2S)-2-aminocyclohexyl)amino)-2-((3-ethyl-1-(2-fluoroethyl)-1H-indazol-5-yl)amino)-5-fluoronicotinamide] | > 8.00 | 6.89 to 7.19
15 | CC[C@@H](Nc1nc(Nc2cnc3cc(OCCOC)ccc3c2)c(C(N)=O)cc1F)[C@H](C)N [Example 006-259, 6-(((2S,3R)-2-aminopentan-3-yl)amino)-5-fluoro-2-((7-(2-methoxyethoxy)quinolin-3-yl)amino)nicotinamide] | > 8.00 | > 7.19
16 | CCOc1ncc(Nc2nc(N[C@@H]3CCCC[C@@H]3N)c(F)cc2C(N)=O)cc1-n1ccnn1 [Example 006-496, 6-(((1R,2S)-2-aminocyclohexyl)amino)-2-((6-ethoxy-5-(1H-1,2,3-triazol-1-yl)pyridin-3-yl)amino)-5-fluoronicotinamide] | > 8.00 | 6.89 to 7.19
17 | NC(=O)c1cc(F)c(N[C@@H]2CCCC[C@@H]2N)nc1Nc1ccc2ncncc2c1 (relative stereo) [Example 006-062, 6-(cis-2-aminocyclohexylamino)-5-fluoro-2-(quinazolin-6-ylamino)nicotinamide] | > 8.00 | > 7.19
18 | COc1ccc2cc(Nc3nc(N[C@H](CC4CC4)[C@H](C)N)c(F)cc3C(N)=O)cnc2c1 [Example 006-346, 6-(((2R,3S)-3-amino-1-cyclopropylbutan-2-yl)amino)-5-fluoro-2-((7-methoxyquinolin-3-yl)amino)nicotinamide] | > 8.00 | 6.70 to 6.89
19 | CCC[C@@H](Nc1nc(Nc2ccnc(OCC)c2)c(C(N)=O)cc1F)[C@H](C)N [Example 006-309, 6-(((2S,3R)-2-aminohexan-3-yl)amino)-2-((2-ethoxypyridin-4-yl)amino)-5-fluoronicotinamide] | > 8.00 | 6.89 to 7.19
20 | COc1ccc(-c2cc(Nc3nc(NC4CCCCC4N)c(F)cc3C(N)=O)ccn2)c(F)c1 (centres unmarked) [Example 002-140] | > 8.00 | 6.70 to 6.89
21 | CCC[C@@H](Nc1nc(Nc2cncc(-c3ccc(OC)cc3F)c2)c(C(N)=O)cc1F)[C@H](C)N [Example 006-287, 6-(((2S,3R)-2-aminohexan-3-yl)amino)-5-fluoro-2-((5-(2-fluoro-4-methoxyphenyl)pyridin-3-yl)amino)nicotinamide] | > 8.00 | 6.89 to 7.19
22 | CCCC[C@H](CN)Nc1nc(Nc2cncc(-n3cccn3)c2)c(C(N)=O)cc1F [Example 006-294, (R)-2-((5-(1H-pyrazol-1-yl)pyridin-3-yl)amino)-6-((1-aminohexan-2-yl)amino)-5-fluoronicotinamide] | 7.30 to 8.00 | 6.89 to 7.19
23 | Cc1nn(C)c2cc(Nc3nc(N[C@H](CC4CC4)[C@H](C)N)c(F)cc3C(N)=O)ccc12 [Example 006-485, 6-(((2R,3S)-3-amino-1-cyclopropylbutan-2-yl)amino)-2-((1,3-dimethyl-1H-indazol-6-yl)amino)-5-fluoronicotinamide] | > 8.00 | 6.89 to 7.19
24 | CC[C@H](N)[C@@H](C)Nc1nc(Nc2ccc3c(cnn3CC)c2)c(C(N)=O)cc1F [Example 006-362, 6-(((2R,3S)-3-aminopentan-2-yl)amino)-2-((1-ethyl-1H-indazol-5-yl)amino)-5-fluoronicotinamide] | > 8.00 | 6.70 to 6.89
25 | NC(=O)c1cc(F)c(N[C@@H]2CCCC[C@@H]2N)nc1Nc1cncc(-c2ccc3[nH]ccc3c2)c1 (relative stereo) [Example 004-076, 2-((5-(1H-indol-5-yl)pyridin-3-yl)amino)-6-(cis-2-aminocyclohexylamino)-5-fluoronicotinamide] | > 8.00 | 6.70 to 6.89
